Test results taken from article PMC6042686 (PLoS Biology, 2018).
Several values for one entry are separate records, joined by “and”; a condition that tells them apart may be missing. Equal entries are not always repeated. Where two headings read alike, the source gives them in different places.

Legend:
BALB/c mice [1] = conditions: in vivo; for Change of food intake when the compound is added to the food: mouse
tree shrews = assay type: in vivo, tree shrew (Tupaia belangeri chinensis);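 as to Normalized food-intake, tree shrew (individual replicate): normalized to average intake of feed without capsaicin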
tree shrew TRPV1 (tsV1) = tree shrew TRPV1 (tsV1) (Tupaia chinensis, UniProt L8Y7X1); assay: cell-based; conditions: for EC50: EC50 for activation of tsV1
mouse TRPV1 (mV1) = target: T1, mouse TRPV1 (mV1) (Mus musculus, UniProt Q704Y3); assay: cell-based; conditions: EC50 for activation of mV1
T1 construct: expressed in transfected cells; host or cells: HEK293T

human TRPV1 (hV1) = target: T2, human TRPV1 (hV1) (Homo sapiens, UniProt Q8NER1); assay: cell-based
T2 construct: expressed in transfected cells; host or cells: HEK293T

polar bear TRPV1 (pV1) = polar bear TRPV1 (pV1) (Ursus maritimus, UniProt A0A384CG69); assay: cell-based
tsV1_M579T = tsV1_M579T (Tupaia chinensis, UniProt L8Y7X1, M598T); assay: cell-based; assay type: cell-based, tree shrew
tsV1_M579S = tsV1_M579S (Tupaia chinensis, UniProt L8Y7X1, M598S); assay: cell-based; design: species or system tree shrew
tsV1_M579G = tsV1_M579G (Tupaia chinensis, UniProt L8Y7X1, M598G); assay: cell-based; design: species or system tree shrew
tsV1_M579A = tsV1_M579A (Tupaia chinensis, UniProt L8Y7X1, M598A); assay: cell-based; design: species or system tree shrew
tsV1_M579V = tsV1_M579V (Tupaia chinensis, UniProt L8Y7X1, M598V); assay: cell-based; design: species or system tree shrew
mV1_T551M [2] = target: T3, mV1_T551M (Mus musculus, UniProt Q704Y3, T551M); assay: cell-based
T3 construct: expressed in transfected cells; host or cells: HEK293T (patch clamp); HEK293 (calcium imaging)

mV1_T551M [3] = target: T3, mV1_T551M; assay type: cell-based
tree shrew DRG neurons = assay type: cell-based
mV1_T551V = target: T4, mV1_T551V (Mus musculus, UniProt Q704Y3, T551V); assay: cell-based
T4 construct: expressed in transfected cells; host or cells: HEK293T

BALB/c mice [4] = conditions: in vivo
tree shrew = conditions: in vivo
mouse paw tissue = conditions: in vivo
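For Normalized food-intake, mouse (individual replicate) in this document: normalized to average intake of feed without capsaicin.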

T1 sequence (Q704Y3 whole entry): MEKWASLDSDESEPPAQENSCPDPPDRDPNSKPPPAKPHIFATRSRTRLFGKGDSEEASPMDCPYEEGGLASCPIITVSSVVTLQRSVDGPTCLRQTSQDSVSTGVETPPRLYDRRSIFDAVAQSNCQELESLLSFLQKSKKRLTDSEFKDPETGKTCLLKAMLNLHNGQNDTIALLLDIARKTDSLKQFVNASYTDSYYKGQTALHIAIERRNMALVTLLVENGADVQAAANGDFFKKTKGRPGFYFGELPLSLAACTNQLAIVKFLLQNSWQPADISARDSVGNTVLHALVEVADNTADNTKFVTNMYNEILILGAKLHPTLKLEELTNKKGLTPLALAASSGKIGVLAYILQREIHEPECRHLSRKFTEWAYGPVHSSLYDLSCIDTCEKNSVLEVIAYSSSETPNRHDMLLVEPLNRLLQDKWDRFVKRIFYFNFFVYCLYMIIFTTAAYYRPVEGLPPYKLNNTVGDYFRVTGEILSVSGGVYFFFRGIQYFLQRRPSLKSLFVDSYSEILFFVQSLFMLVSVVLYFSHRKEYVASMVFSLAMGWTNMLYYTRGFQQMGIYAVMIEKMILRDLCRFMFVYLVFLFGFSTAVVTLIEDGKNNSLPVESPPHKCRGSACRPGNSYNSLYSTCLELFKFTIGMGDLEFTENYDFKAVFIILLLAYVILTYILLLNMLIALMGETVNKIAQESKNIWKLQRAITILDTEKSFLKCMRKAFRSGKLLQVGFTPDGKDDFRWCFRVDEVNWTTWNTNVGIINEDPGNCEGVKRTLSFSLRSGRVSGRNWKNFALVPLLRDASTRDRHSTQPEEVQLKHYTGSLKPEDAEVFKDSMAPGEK
T3 sequence (Q704Y3 whole entry T551M): as the sequence (Q704Y3 whole entry) above, with T551M counted along it
Chain of tree shrew TRPV1 (tsV1) (L8Y7X1 1-828): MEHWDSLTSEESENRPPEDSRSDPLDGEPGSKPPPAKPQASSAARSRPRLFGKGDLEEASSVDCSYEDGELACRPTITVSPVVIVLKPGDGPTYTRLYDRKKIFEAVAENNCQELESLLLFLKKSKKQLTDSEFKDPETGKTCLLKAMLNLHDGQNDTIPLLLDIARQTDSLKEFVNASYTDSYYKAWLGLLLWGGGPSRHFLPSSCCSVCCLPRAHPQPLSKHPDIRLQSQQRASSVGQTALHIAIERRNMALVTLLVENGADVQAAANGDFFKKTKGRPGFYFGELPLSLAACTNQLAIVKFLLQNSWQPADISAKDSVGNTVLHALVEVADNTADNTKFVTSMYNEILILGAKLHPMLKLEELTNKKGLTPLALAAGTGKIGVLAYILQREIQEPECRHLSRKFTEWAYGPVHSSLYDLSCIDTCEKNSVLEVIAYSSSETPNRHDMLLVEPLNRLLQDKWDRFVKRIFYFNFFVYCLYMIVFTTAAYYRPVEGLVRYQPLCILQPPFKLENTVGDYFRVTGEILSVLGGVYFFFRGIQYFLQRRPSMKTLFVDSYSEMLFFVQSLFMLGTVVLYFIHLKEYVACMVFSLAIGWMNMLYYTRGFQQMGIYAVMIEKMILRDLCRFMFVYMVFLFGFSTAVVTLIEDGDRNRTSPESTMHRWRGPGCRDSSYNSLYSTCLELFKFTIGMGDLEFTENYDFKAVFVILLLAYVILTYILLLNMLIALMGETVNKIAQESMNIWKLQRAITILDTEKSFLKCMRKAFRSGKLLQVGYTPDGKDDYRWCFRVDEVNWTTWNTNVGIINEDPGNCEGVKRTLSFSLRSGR
Chain of tsV1_M579T (L8Y7X1 1-828 M598T): as the sequence (L8Y7X1 1-828) above, with M598T counted along it
Chain of tsV1_M579S (L8Y7X1 1-828 M598S): as the sequence (L8Y7X1 1-828) above, with M598S counted along it
T2 sequence (Q8NER1 whole entry): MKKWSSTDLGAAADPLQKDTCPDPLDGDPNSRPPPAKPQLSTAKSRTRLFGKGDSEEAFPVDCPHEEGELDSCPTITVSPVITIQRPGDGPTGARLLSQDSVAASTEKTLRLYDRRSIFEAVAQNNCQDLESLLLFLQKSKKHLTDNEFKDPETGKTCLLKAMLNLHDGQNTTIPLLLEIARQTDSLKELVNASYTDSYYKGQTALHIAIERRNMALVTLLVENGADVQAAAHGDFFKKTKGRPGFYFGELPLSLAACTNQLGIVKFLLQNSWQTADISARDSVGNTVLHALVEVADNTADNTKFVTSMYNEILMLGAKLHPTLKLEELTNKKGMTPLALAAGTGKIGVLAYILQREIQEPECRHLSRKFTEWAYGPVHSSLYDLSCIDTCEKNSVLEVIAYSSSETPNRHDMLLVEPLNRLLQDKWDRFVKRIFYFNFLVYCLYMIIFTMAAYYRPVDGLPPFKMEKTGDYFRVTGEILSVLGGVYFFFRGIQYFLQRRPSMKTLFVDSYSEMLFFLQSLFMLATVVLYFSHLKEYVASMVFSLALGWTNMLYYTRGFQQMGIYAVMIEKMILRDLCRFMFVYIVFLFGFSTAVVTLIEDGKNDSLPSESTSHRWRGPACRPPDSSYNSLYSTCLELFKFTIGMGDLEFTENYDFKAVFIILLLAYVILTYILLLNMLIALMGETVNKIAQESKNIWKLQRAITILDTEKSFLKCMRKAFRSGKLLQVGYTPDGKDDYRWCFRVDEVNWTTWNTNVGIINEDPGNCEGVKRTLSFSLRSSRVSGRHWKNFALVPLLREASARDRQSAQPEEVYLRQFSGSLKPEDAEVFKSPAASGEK
Chain of polar bear TRPV1 (pV1) (A0A384CG69 1-841): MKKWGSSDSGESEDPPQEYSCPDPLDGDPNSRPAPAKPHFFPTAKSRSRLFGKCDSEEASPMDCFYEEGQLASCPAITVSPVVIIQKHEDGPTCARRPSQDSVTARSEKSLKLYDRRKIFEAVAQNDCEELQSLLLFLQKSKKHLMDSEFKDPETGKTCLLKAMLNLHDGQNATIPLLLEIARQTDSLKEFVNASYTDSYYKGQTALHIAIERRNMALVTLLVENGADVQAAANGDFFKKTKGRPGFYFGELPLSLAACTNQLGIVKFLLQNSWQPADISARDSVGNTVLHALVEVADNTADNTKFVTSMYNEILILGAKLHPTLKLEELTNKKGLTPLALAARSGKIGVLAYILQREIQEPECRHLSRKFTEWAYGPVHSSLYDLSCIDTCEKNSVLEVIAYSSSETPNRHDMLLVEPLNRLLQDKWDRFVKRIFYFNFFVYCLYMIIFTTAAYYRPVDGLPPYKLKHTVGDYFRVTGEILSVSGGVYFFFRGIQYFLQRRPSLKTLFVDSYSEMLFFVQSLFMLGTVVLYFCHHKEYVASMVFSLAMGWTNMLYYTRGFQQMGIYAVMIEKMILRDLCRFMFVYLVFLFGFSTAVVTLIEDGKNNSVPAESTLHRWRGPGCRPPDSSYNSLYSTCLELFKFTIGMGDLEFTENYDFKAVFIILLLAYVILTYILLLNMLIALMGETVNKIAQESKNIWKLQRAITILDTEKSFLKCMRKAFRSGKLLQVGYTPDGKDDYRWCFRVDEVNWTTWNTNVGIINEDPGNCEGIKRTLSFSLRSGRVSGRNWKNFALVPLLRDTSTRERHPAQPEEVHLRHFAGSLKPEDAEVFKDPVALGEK
T4 sequence (Q704Y3 whole entry T551V): as the sequence (Q704Y3 whole entry) above, with T551V counted along it
Chain of tsV1_M579A (L8Y7X1 1-828 M598A): as the sequence (L8Y7X1 1-828) above, with M598A counted along it
Chain of tsV1_M579G (L8Y7X1 1-828 M598G): as the sequence (L8Y7X1 1-828) above, with M598G counted along it
Chain of tsV1_M579V (L8Y7X1 1-828 M598V): as the sequence (L8Y7X1 1-828) above, with M598V counted along it

`CCCCC/C=C/C=C/C(=O)NCCc1ccc(O)c(OC)c1` [Cap2] was tested, and the “Change of food intake when the compound is added to the food” value (“Change of food intake” below) (BALB/c mice [1]) was “significantly decreased”, the “Change of food intake” value (tree shrews; in vivo) was “slight increase” and the “Normalized food-intake, AVE_tree shrew” value (tree shrews; in vivo) was 1.13 and 1.269 and 1.38 and 1.28. The EC50 (tree shrew TRPV1 (tsV1)) was 1900 µM and ~1900 µM, the “EC50 of tsV1 larger than the EC50 of mV1” value (tree shrew TRPV1 (tsV1); hek293t cells) was “approximately 2,500 fold” and the EC50 (mouse TRPV1 (mV1)) was 0.74 ± 0.05 µM. It also gave an EC50 (human TRPV1 (hV1)) of 5.73 ± 0.05 µM, an EC50 (polar bear TRPV1 (pV1)) of 0.87 ± 0.04 µM and an EC50 (tsV1_M579T) of 2.34 ± 0.26 µM. The “Shift of concentration-response curve relative to wild-type tsV1” value (tsV1_M579T) was “large shifts to the left”, the “Change in the EC50 on mutating the homologous site (mV1_T551M or tsV1_M579T)” value (tsV1_M579T; hek293t cells) was “approximately 1,000 fold” and the “EC50 of tsV1_M579T lower than EC50 of wild-type tsV1” value (tsV1_M579T; hek293t cells) was “approximately 1,000 fold”. The EC50 (tsV1_M579S) was 5.46 µM, the “Shift of concentration-response curve relative to wild-type tsV1” value (tsV1_M579S) was “large shifts to the left” and the EC50 (tsV1_M579G) was 920 µM. For the same molecule, the EC50 (tsV1_M579A) was 1070 µM, the EC50 (tsV1_M579V) was 830 µM and the EC50 (mV1_T551M [2]) was 151.4 ± 0.12 µM. The “Calcium signal in mV1_T551M-expressing HEK293 cells” value (mV1_T551M [3]) was “largely diminished calcium signal”.
With `COc1cc(CNC(=O)CCCC/C=C/C(C)C)ccc1O` [capsaicin] the “Normalized food-intake, mouse (individual replicate)” value (BALB/c mice [1]) was 0.359 and 0.496 and 0.524 and 0.168 and 0.264 and 0.288 and 0.063 and 0.143 and 0.169 and 0.008 and 0.009 and 0.007, the “Change of food intake” value (BALB/c mice [1]) was “significantly reduced in a concentration-dependent manner” and the “Normalized food-intake, AVE_tree shrew” value (tree shrews; 24 hours, n = 3) was 1.087 and 1.119 and 1.28 and 1.255. For the same molecule, the “Change of food intake” value (tree shrews; in vivo) was “no such change”, the “Normalized food-intake, tree shrew (individual replicate)” value (tree shrews; in vivo) was 1.004 and 1.211 and 1.046 and 1.034 and 1.223 and 1.101 and 1.209 and 1.372 and 1.259 and 1.119 and 1.381 and 1.265 and the “Calcium response of DRG neurons” value (tree shrew DRG neurons) was “much weaker response”. For the same molecule, the EC50 (tree shrew TRPV1 (tsV1)) was 5.2 ± 0.13 µM, the EC50 (mouse TRPV1 (mV1)) was 0.2 µM and ~0.2 µM and the “Change in the EC50 on mutating the homologous site (mV1_T551M or tsV1_M579T)” value (tsV1_M579T) was “approximately 10 fold”. For the same molecule, the “EC50 of tsV1_M579T lower than EC50 of wild-type tsV1” value (tsV1_M579T) was “approximately 50 fold”, the EC50 (mV1_T551M [2]) was roughly 2.1 µM and the EC50 (mV1_T551V) was roughly 1.5 µM. The “paw licking after capsaicin (S1B Fig), mouse, single animals” value (BALB/c mice [4]) was 74.03 and 80.09 and 18.24 and 91.1 and 11.82 and 100.82 and 8.03 and 45.87 and 22.39 and 126.21, the “paw licking after capsaicin (S1B Fig), AVE_mouse” value (BALB/c mice [4]; mouse) was 55.056 and 60.664 and the “Capsaicin-induced acute pain behavior (paw licking)” value (tree shrew) was “absent”. For the same molecule, the “paw licking after capsaicin (S1B Fig), AVE_tree shrew” value (tree shrew) was 1.836 and 1.5525, the “paw licking after capsaicin (S1B Fig), tree shrew, single animals” value (tree shrew) was 3.34 and 1.67 and 2.84 and 0.95 and 1.47 and 1.89 and 1.46 and 0.74 and 2 and 2.07 and 2.32 and 2.01 and 1.28 and the “Paw tissue histology (H&E) after hind paw injection” value (mouse paw tissue) was “significantly increased”.
In the case of `CCCCC[C@H](O)CC(=O)CCc1ccc(O)c(OC)c1` [gingerol], the “Change in the EC50 on mutating the homologous site (mV1_T551M or tsV1_M579T)” value (tsV1_M579T) is reported as “approximately 6 fold”.
With `CCCCC/C=C/C(=O)CCc1ccc(O)c(OC)c1` [shogaol] the “Change in the EC50 on mutating the homologous site (mV1_T551M or tsV1_M579T)” value (tsV1_M579T; hek293t cells) was “approximately 10 fold”.
For `O=C(/C=C/C=C/c1ccc2c(c1)OCO2)N1CCCCC1` [piperine], the “Change in the EC50 on mutating the homologous site (mV1_T551M or tsV1_M579T)” value (tsV1_M579T; hek293t cells) was “approximately 2 fold”.
